Each structure is given as a SMILES string.

The assay concerns the target T1, GCase (Homo sapiens, UniProt P04062).
T1 construct: endogenous in cells; host or cells: HeLa cells
T1 sequence (P04062 40-536): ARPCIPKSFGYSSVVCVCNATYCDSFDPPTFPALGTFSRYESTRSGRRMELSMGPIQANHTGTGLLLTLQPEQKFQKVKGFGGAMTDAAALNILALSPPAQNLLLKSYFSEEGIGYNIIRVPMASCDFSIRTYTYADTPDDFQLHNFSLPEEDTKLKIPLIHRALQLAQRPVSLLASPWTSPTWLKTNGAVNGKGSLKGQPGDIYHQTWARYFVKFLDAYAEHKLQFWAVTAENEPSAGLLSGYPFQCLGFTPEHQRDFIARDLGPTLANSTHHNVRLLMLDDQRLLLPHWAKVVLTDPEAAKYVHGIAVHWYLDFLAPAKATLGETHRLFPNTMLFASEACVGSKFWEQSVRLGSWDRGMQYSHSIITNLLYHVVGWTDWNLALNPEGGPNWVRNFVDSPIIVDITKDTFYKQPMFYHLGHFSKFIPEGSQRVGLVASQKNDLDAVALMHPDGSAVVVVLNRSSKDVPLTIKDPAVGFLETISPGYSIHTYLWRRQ
Description: activation of GCase in a live cell PFB assay in HELA cells. The class given is cell-based.
What is called EC50 is the concentration at which the effect is half-maximal. In turn, `COCC1CCC(COc2cccnc2C(F)(F)F)CN1c1cnc2cnn(CC(F)F)c2n1` (stereo not shown) [Compound 295, 1-(2,2-Difluoroethyl)-6-(2-(methoxymethyl)-5-(((2-(trifluoromethyl)pyridin-3-yl)oxy)methyl)piperidin-1-yl)-1H-pyrazolo[3,4-b]pyrazine] gave a concentration for a half-maximal effect (EC50) of less than 10 µM.

For `FC(F)Cn1ncc2ncc(N3CCC(COc4ncccc4C(F)(F)F)CC3)nc21` [Compound 313, 1-(2,2-Difluoroethyl)-6-(4-(((3-(trifluoromethyl)pyridin-2-yl)oxy)methyl)piperidin-1-yl)-1H-pyrazolo[3,4-b]pyrazine], the half-maximal effective concentration (EC50) was in the range of 10 to 50 µM.

Regarding `O=C(c1cnn(-c2ccccc2F)n1)N1CCCC(COc2ccccc2)C1` (stereo not shown) [Compound 22, (2-(2-Fluorophenyl)-2H-1,2,3-triazol-4-yl)(3-(phenoxymethyl)piperidin-1-yl)methanone], the concentration giving a half-maximal response (EC50) is 10 to 50 µM.

The molecule `COc1ccc(OCC2CCN(CCCn3ccnc3C)CC2)cc1` [Compound 454] gave an EC50 greater than 100 µM.

In turn, `O=C(c1cnc(-c2nncs2)cn1)N1C[C@@H]2[C@@H](COc3cccc(C(F)(F)F)n3)[C@@H]2C1` [Compound 247, (1R,5S,6S)-3-[5-(1,3,4-Thiadiazol-2-yl)pyrazine-2-carbonyl]-6-({[6-(trifluoromethyl)pyridin-2-yl]oxy}methyl)-3-azabicyclo[3.1.0]hexane] had a concentration for a half-maximal effect (EC50) greater than 100 µM.

`O=C([C@@H]1C[C@H]1c1ccc(F)cc1)N1CCCC(COc2ccccc2)C1` (stereo partly shown) [Compound 219] gave an EC50 of 10 to 50 µM.

Consider `COc1ccc(OCC2CCN(C(=O)Nc3ccc(C#N)cc3F)CC2)cc1` [Compound 443], for which the 50% effective concentration (EC50) was in the range of 50 to 100 µM.

Regarding `Cc1cnc2c(n1)c(C(=O)N1CCCC(COc3ccccc3C)C1)c(-c1ccccc1)n2C` (stereo not shown) [Compound 263, (2,5-dimethyl-6-phenyl-5H-pyrrolo[2,3-b]pyrazin-7-yl)(3-((o-tolyloxy)methyl)piperidin-1-yl)methanone], the EC50 fell in the range of 10 to 50 µM.

For the molecule `N#Cc1cccnc1OC1CCN(C(=O)C23CC4CC(CC(C4)C2)C3)CC1` [Compound 375], the EC50 was in the range of 10 to 50 µM.

Turning to `COc1ccc(OCC2CCN(Cc3cnc(C)[nH]3)CC2)cc1` [Compound 444], the EC50 is greater than 100 µM.

For the molecule `O=C(Cc1csc(-c2ccccc2)n1)N1CCC(Oc2cccc(C(F)(F)F)n2)CC1` [Compound 402, 2-(2-Phenyl-1,3-thiazol-4-yl)-1-(4-{[6-(trifluoromethyl)pyridin-2-yl]oxy}piperidin-1-yl)ethan-1-one], the EC50 was in the range of 10 to 50 µM.

For the molecule `N#Cc1cccnc1OC1CCN(C(=O)C2(c3ccc(Cl)cc3)CCCC2)CC1` [Compound 370], the concentration giving a half-maximal response (EC50) is less than 10 µM.

As for `C[C@@H]1CC[C@H](COc2cc(C(F)(F)F)ccn2)CN1c1cnc2cnn(CC(F)F)c2n1` [Compound 276, 1-(2,2-Difluoroethyl)-6-((2R,5S)-2-methyl-5-(((4-(trifluoromethyl)pyridin-2-yl)oxy)methyl)piperidin-1-yl)-1H-pyrazolo[3,4-b]pyrazine], the EC50 was in the range of 50 to 100 µM.

With `FC(F)Cn1ncc2ncc(N3CCC(OC4CN(c5cccnc5C(F)(F)F)C4)CC3)nc21` [Compound 329, 1-(2,2-Difluoroethyl)-6-(4-((1-(2-(trifluoromethyl)pyridin-3-yl)azetidin-3-yl)oxy)piperidin-1-yl)-1H-pyrazolo[3,4-b]pyrazine], the 50% effective concentration (EC50) is less than 10 µM.

In turn, `O=C(c1ccc2cc[nH]c2c1)N1CCC(Oc2ccnc(C(F)(F)F)c2)CC1` [Compound 319, (1H-Indol-6-yl)(4-((2-(trifluoromethyl)pyridin-4-yl)oxy)piperidin-1-yl)methanone] gave an EC50 of 10 to 50 µM.

In turn, `CC(=O)N1CCC(c2cc3ncc(N4CCCC(COc5cccnc5C(F)(F)F)C4)nc3n2C)CC1` (stereo not shown) [Compound 73, 1-(4-(5-methyl-3-(3-(((2-(trifluoromethyl)pyridin-3-yl)oxy)methyl)piperidin-1-yl)-5H-pyrrolo[2,3-b]pyrazin-6-yl)piperidin-1-yl)ethan-1-one] returned an EC50 of less than 10 µM.

Molecule `Cc1nc(-n2cccc2)sc1C(=O)N1CCCC(COc2ccccc2)C1` (stereo not shown) [Compound 163] came in with a concentration giving a half-maximal response (EC50) of 10 to 50 µM.

`CC(C)c1cc(C(=O)N2C[C@@H]3[C@@H](COc4cccnc4C(F)(F)F)[C@@H]3C2)[nH]n1` [Compound 110, (1R,5S,6R)-3-[3-(Propan-2-yl)-1H-pyrazole-5-carbonyl]-6-({[2-(trifluoromethyl)pyridin-3-yl]oxy}methyl)-3-azabicyclo[3.1.0]hexane] gave an EC50 of 50 to 100 µM.

Molecule `COc1ccc(OCCCC(=O)N2CCCC(COc3ccccc3)C2)cc1` (stereo not shown) [Compound 12] gave an EC50 of 10 to 50 µM.

`CCOc1ccccc1C(=O)N1CCC(Oc2ccc(C(F)(F)F)cn2)CC1` [Compound 391]: the EC50 lay in the range of 10 to 50 µM.

With `O=C(c1ccc2cc[nH]c2c1)N1CCC(Oc2cnccc2C(F)(F)F)CC1` [Compound 310, (1H-Indol-6-yl)(4-((4-(trifluoromethyl)pyridin-3-yl)oxy)piperidin-1-yl)methanone], the EC50 fell in the range of 10 to 50 µM.

In the case of `FC(F)Cn1ncc2ncc(N3C[C@@H]4[C@@H](COc5cc(C(F)(F)F)ccn5)[C@@H]4C3)nc21` [Compound 90, (1R,5S,6S)-3-[1-(2,2-difluoroethyl)-1H-pyrazolo[3,4-b]pyrazin-6-yl]-6-({[4-(trifluoromethyl)pyridin-2-yl]oxy}methyl)-3-azabicyclo[3.1.0]hexane], the EC50 fell in the range of 10 to 50 µM.

Molecule `c1ccc(OC2CCN(c3cnc4ccccc4n3)CC2)cc1` [Compound 414, 2-(4-Phenoxypiperidin-1-yl)quinoxaline] registered a concentration for a half-maximal effect (EC50) of 10 to 50 µM.

In the case of `CC1CCC(COc2cccnc2C(F)(F)F)CN1c1cncc(-c2nncs2)n1` (stereo not shown) [Compound 232, 2-[2-Methyl-5-({[2-(trifluoromethyl)pyridin-3-yl]oxy}methyl)piperidin-1-yl]-6-(1,3,4-thiadiazol-2-yl)pyrazine], the EC50 is less than 10 µM.

`CCc1noc(CNC(=O)N2CCC(COc3ccc(OC)cc3)CC2)n1` [Compound 436] displayed an EC50 greater than 100 µM.

The record behind these values is patent publication US20240262832A1, “SMALL MOLECULE MODULATORS OF GLUCOCEREBROSIDASE ACTIVITY AND USES THEREOF” (Vanqua Bio, Inc., priority 2021, published 2024).
